Source: ChEMBL document CHEMBL5030527, “Novel carbohydrate-based sulfonamide derivatives as selective carbonic anhydrase II inhibitors: Synthesis, biological and molecular docking analysis” (Bioorg Med Chem Lett, 2021)

Experiments:
[1] = Solubility of the compound; type: physicochemical
[2] = Cytotoxicity against HCEC assessed as […] cell viability at 1% concentration by MTT assay relative to control; type: functional, Homo sapiens
Carbonic anhydrase 9 = Carbonic anhydrase 9 (Homo sapiens, UniProt Q16790); experiment: Inhibition of recombinant human carbonic anhydrase 9 using 4-nitrophenylacetate as substrate
[3] = Cytotoxicity against HCEC assessed as reduction in cell viability at 2% concentration by MTT assay relative to control; type: functional, Homo sapiens

Structure (SMILES)	solubility [1] [%]	Activity [2] [%]	IC50 (Carbonic anhydrase 9) [nM]	Activity [3] [%]
CC(=O)Nc1nnc(S(N)(=O)=O)s1 [ACETAZOLAMIDE]	0.21	–	–	–
CO[C@@H]1O[C@H](CO)[C@@H](O)[C@H](O)[C@H]1NC(=O)c1ccc(S(N)(=O)=O)cc1	2.5	80	90	77
CCCO[C@@H]1O[C@H](CO)[C@@H](O)[C@H](O)[C@H]1NC(=O)c1ccc(S(N)(=O)=O)cc1	2	80	241	77
CCN[C@H]1C[C@H](C)S(=O)(=O)c2sc(S(N)(=O)=O)cc21 [DORZOLAMIDE]	0.67	–	–	–
CC(=O)N[C@@H]1O[C@H](CO)[C@@H](O)[C@H](O)[C@H]1NC(=O)c1ccc(S(N)(=O)=O)cc1	2.5	80	227	77
CCC(=O)N[C@@H]1O[C@H](CO)[C@@H](O)[C@H](O)[C@H]1NC(=O)c1ccc(S(N)(=O)=O)cc1	2.5	80	276	77
CC(C)O[C@@H]1O[C@H](CO)[C@@H](O)[C@H](O)[C@H]1NC(=O)c1ccc(S(N)(=O)=O)cc1	2	80	142	77
NS(=O)(=O)c1ccc(C(=O)O)cc1 [CARZENIDE]	–	–	24000	–
CCN[C@H]1CN(CCCOC)S(=O)(=O)c2sc(S(N)(=O)=O)cc21 [BRINZOLAMIDE]	0.05	–	–	–
CCO[C@@H]1O[C@H](CO)[C@@H](O)[C@H](O)[C@H]1NC(=O)c1ccc(S(N)(=O)=O)cc1	2.3	80	152	77
